Experimental findings from patent US7754772B2, “Nitrosated nonsteroidal antiinflammatory compounds, compositions and methods of use” (NicOx, S.A., priority 2002, dated 2010) are described below.

One may read the melting point as the temperature of the solid-liquid transition.

Structures are written as SMILES.

In series [1] the test system is Male Sprague Dawley rats, gastric hemorrhagic lesion. The experiment in a line: rat gastric lesion test. The note with it: rat fasted 24 hours, oral gavage, lesion score (summed length, mm) three hours after dosing; ratio relative to parent NSAID (Naproxen = 1).
Protocol: Male Sprague Dawley rats (Charles River Laboratories, Wilmington, Mass.) weighing 230-250 g were used for the experiments. The rats were housed with laboratory chow and water ad libitum prior to the study. The rats were fasted for 24 hours with free access to water and then dosed by oral gavage with vehicle or with test compounds given at a volume of 0.5 mL/100 g. […] Rats were euthanized by CO2 three hours after dosing. The stomachs were dissected along the greater curvature, washed with a directed stream of 0.9% saline and pinned open on a sylgard based petri dish for examination of the hemorrhagic lesion. Gastric lesion score was expressed in mm and calculated by summing the length of each lesion.
In series [2] the test system is Male Sprague-Dawley rats, carrageenan paw edema. The experiment in a line: rat paw edema test (carrageenan), antiinflammatory activity. Particulars: oral gavage one hour prior to subplantar carrageenan, paw volume three hours later, expressed as ratio (Vehicle = 1). The series is classed as in vivo. The procedure: The rat paw edema test was used to measure the antiinflammatory activity. The rat paw edema test was performed according to the method of Winter et al, Proc. Soc. […] Male Sprague-Dawley rats (250-275 g) were fasted overnight and dosed by oral gavage with vehicle or suspensions of compound one hour prior to the subplantar injection of 50 μl of 1% suspension of carrageenan. Three hours later, the paw volume was measured and compared with the initial volume measured immediately after carrageenan injection.
(In the carrageenan paw model, swelling and tenderness develop within hours.)

Turning to `COc1ccc2cc([C@H](C)C(=O)OCCSCCO[N+](=O)[O-])ccc2c1` [Example 1, 2-(2-(Nitrooxy)ethylthio)ethyl (2S)-2-(6-methoxy(2-naphthyl))propanoate], the melting point was in the range of 33 to 37 °C. For the same molecule, the “Relative Activity Gastric Lesion” value in series [1] was 0.32. In the case of `COc1ccc2cc([C@H](C)C(=O)OCCS(=O)(=O)CCO[N+](=O)[O-])ccc2c1` [Example 2, 2-((2-(Nitrooxy)ethyl)sulfonyl)ethyl (2S)-2-(6-methoxy(2-naphthyl)) propanoate], in series [2], the “Relative Activity Antiinflammation” value came to 0.49. Besides, the “Relative Activity Gastric Lesion” value in series [1] was 0.11. For the molecule `COc1ccc2cc([C@H](C)C(=O)OCC3(CO[N+](=O)[O-])COCOC3)ccc2c1` [Example 9], the “Relative Activity Antiinflammation” value in series [2] worked out at 0.69. Besides, the “Relative Activity Gastric Lesion” value in series [1] was 0.02. Molecule `COc1ccc2cc([C@H](C)C(=O)OCC(=O)COC(=O)c3ccc(CO[N+](=O)[O-])cc3)ccc2c1` [Example 11, 3-(4-((Nitrooxy)methyl)phenylcarbonyloxy)-2-oxopropyl (2S)-2-(6-methoxy(2-naphthyl))propanoate] registered a melting point of 105 to 107 °C. As for `COc1ccc2cc([C@H](C)C(=O)OCC(C)(CO[N+](=O)[O-])[N+](=O)[O-])ccc2c1` (stereo partly drawn) [Example 12, 2-Methyl-2-nitro-3-(nitrooxy)propyl(2S)-2-(6-methoxy(2-naphthyl)) propanoate], in series [2], the “Relative Activity Antiinflammation” value is 0.47. The “Relative Activity Gastric Lesion” value in series [1] is 0.18. `COc1ccc2cc([C@H](C)C(=O)OCC(CO[N+](=O)[O-])(CO[N+](=O)[O-])[N+](=O)[O-])ccc2c1` [Example 13, 2-Nitro-3-(nitrooxy)-2-((nitrooxy)methyl)propyl (2S)-2-(6-methoxy(2-naphthyl))propanoate] gave a melting point of 69 to 71 °C. In addition, in series [1], the “Relative Activity Gastric Lesion” value came to 0.55. Taken in the same sequence, the figures for `COc1ccc2cc([C@H](C)C(=O)OCCOC(=O)NCCO[N+](=O)[O-])ccc2c1` [Example 14, 2-(N-(2-(Nitrooxy)ethyl)carbamoyloxy)ethyl (2S)-2-(6-methoxy(2-naphthyl))propanoate] were 56 to 57 °C and 0.15.

Take `COc1ccc2cc([C@H](C)C(=O)OCC(=O)N(C)CCO[N+](=O)[O-])ccc2c1` [Example 17, (N-Methyl-N-(2-(nitrooxy)ethyl)carbamoyl)methyl (2S)-2-(6-methoxy(2-naphthyl))propanoate]: the melting point was in the range of 80 to 81 °C. Regarding `CCN(CCO[N+](=O)[O-])C(=O)COC(=O)[C@@H](C)c1ccc2cc(OC)ccc2c1` [Example 18, (N-Ethyl-N-(2-(nitrooxy)ethyl)carbamoyl)methyl (2S)-2-(6-methoxy(2-naphthyl))propanoate], the melting point lay in the range of 60 to 61 °C. Besides, in series [1], the “Relative Activity Gastric Lesion” value stood at 0.25. For the molecule `COc1ccc2cc([C@H](C)C(=O)OCC(=O)N(C)CC(=O)OCCO[N+](=O)[O-])ccc2c1` [Example 20, (N-Methyl-N-(((2-(nitrooxy)ethyl)oxycarbonyl)methyl)carbamoyl)methyl (2S)-2-(6-methoxy(2-naphthyl))propanoate], the melting point was 71 to 73 °C. Further, the “Relative Activity Gastric Lesion” value in series [1] came to 0.03.

Molecule `COc1ccc2cc([C@H](C)C(=O)OCC(=O)N(C)CC(=O)OCCCO[N+](=O)[O-])ccc2c1` [Example 21, (N-Methyl-N-(((3-(nitrooxy)propyl)oxycarbonyl)methyl)carbamoyl)methyl (2S)-2-(6-methoxy(2-naphthyl))propanoate] showed a melting point of 41 to 43 °C. Besides, in series [1], the “Relative Activity Gastric Lesion” value is 0.19. `COc1ccc2cc([C@H](C)C(=O)OCC(=O)N(C)CC(=O)NCCO[N+](=O)[O-])ccc2c1` [Example 22, (N-Methyl-N-((N-(2-(nitrooxy)ethyl)carbamoyl)methyl)carbamoyl)methyl (2S)-2-(6-methoxy(2-naphthyl))propanoate]: the melting point was 79 to 81 °C.

In the case of `COc1ccc2cc(C(C)C(=O)OCC(=O)OCCO[N+](=O)[O-])ccc2c1` (stereo not shown) [Example 23, ((2-(Nitrooxy)ethyl)oxycarbonyl)methyl 2-(6-methoxy-2-naphthyl)propanoate], the melting point was in the range of 44 to 45 °C.

In the case of `COc1ccc2cc(C(C)C(=O)OCC(=O)NCCCO[N+](=O)[O-])ccc2c1` (stereo not shown) [Example 24, (N-(3-(Nitrooxy)propyl)carbamoyl)methyl 2-(6-methoxy-2-naphthyl)propanoate], the melting point lay within 51 to 53 °C. Consider `COc1ccc2cc([C@H](C)C(=O)OCC(=O)O[C@@H]3CO[C@H]4[C@H]3OC[C@H]4O[N+](=O)[O-])ccc2c1` [Example 26, (1S,5S,2R,6R)-6-(Nitrooxy)-4,8-dioxabicyclo(3.3.0)oct-2-yl)oxycarbonyl) methyl (2S)-2-(6-methoxy (2-naphthyl)) propanoate], for which the “Relative Activity Antiinflammation” value in series [2] turned out to be 0.75. Also, the “Relative Activity Gastric Lesion” value in series [1] was 0.07. For the molecule `COc1ccc2cc([C@H](C)C(=O)OC[C@@H](CO[N+](=O)[O-])O[N+](=O)[O-])ccc2c1` [Example 27c, (2S)-2,3-Bis(nitrooxy)propyl (2S)-2-(6-methoxy(2-naphthyl))propanoate], the “Relative Activity Gastric Lesion” value in series [1] was 0.20. With `COc1ccc2cc([C@H](C)C(=O)OC[C@@H](O)CO[N+](=O)[O-])ccc2c1` [Example 28, (2R)-2-hydroxy-3-(nitrooxy)propyl (2S)-2-(6-methoxy(2-naphthyl)) propanoate], the “Relative Activity Antiinflammation” value in series [2] came out at 0.57. With `COc1ccc2cc([C@H](C)C(=O)OCC(=O)COC(=O)Cc3ccc(CO[N+](=O)[O-])cc3)ccc2c1` [Example 30, 3-(2-(4-((Nitrooxy)methyl)phenyl)acetyloxy)-2-oxopropyl (2S)-2-(6-methoxy(2-naphthyl))propanoate], the melting point was in the range of 92 to 95 °C. With `COc1ccc2cc([C@H](C)C(=O)Oc3ccc(C(=O)OCCO[N+](=O)[O-])cc3)ccc2c1` [Example 32, 4-((2-(Nitrooxy)ethyl)oxycarbonyl)phenyl (2S)-2-(6-methoxy(2-naphthyl))propanoate], in series [1], the “Relative Activity Gastric Lesion” value is recorded as 0.06. For `COc1ccc2cc([C@H](C)C(=O)OCC(=O)N(C)CCCO[N+](=O)[O-])ccc2c1` [Example 34, (N-methyl-N-(3-(nitrooxy)propyl)carbamoyl)methyl (2S)-2-(6-methoxy(2-naphthyl))propanoate], the melting point was in the range of 104 to 105 °C. Also, in series [1], the “Relative Activity Gastric Lesion” value is reported as 0.02. Regarding `COc1ccc2cc([C@H](C)C(=O)NOCC(=O)N3CCC(CO[N+](=O)[O-])CC3)ccc2c1` [Example 35, (2S)-2-(6-Methoxy(2-naphthyl))-N-(2-(4-((nitrooxy)methyl)piperidyl)-2-oxoethoxy)propanamide], the “Relative Activity Antiinflammation” value in series [2] is recorded as 0.06. `COc1ccc2cc([C@H](C)C(=O)OCCOc3ccc(OCCO[N+](=O)[O-])cc3)ccc2c1` [Example 39, 2-(4-(2-(Nitrooxy)ethoxy)phenoxy)ethyl (2S)-2-(6-methoxy(2-naphthyl))propanoate]: the melting point was in the range of 67 to 69 °C. Further, in series [1], the “Relative Activity Gastric Lesion” value came out at 0.04. The molecule `COc1ccc2cc([C@H](C)C(=O)OCCOC(=O)C(=O)OCCCO[N+](=O)[O-])ccc2c1` [Example 40, 2-((2S)-2-(6-Methoxy(2-naphthyl))propanoyloxy)ethyl 3-(nitrooxy)-propyl ethane-1,2-dioate] displayed a melting point of 55 to 58 °C. In turn, `COc1ccc2cc([C@H](C)C(=O)NNC(=O)CCCO[N+](=O)[O-])ccc2c1` [Example 41, N-((2S)-2-(6-Methoxy(2-naphthyl))propanoylamino)-4 (nitrooxy)butanamide] gave a melting point of 117 to 119 °C. Same read-out and setting: with `COc1ccc2cc([C@H](C)C(=O)OCCN(C)C(=O)c3ccc(CO[N+](=O)[O-])cc3)ccc2c1` [Example 45, 2-(N-Methyl(4-((nitrooxy)methyl)phenyl)carbonylamino)ethyl (2S)-2-(6-methoxy(2-naphthyl))propanoate] the figure was 108 to 115 °C; with `COc1ccc2c(c1)c(CC(=O)O[C@H]1CO[C@H]3[C@H]1OC[C@H]3O[N+](=O)[O-])c(C)n2C(=O)c1ccc(Cl)cc1` [Example 46, (1S,2S,5S,6R)-6-(Nitrooxy)-4,8-dioxabicyclo(3.3.0)oct-2-yl 2-(1-((4 chlorophenyl)carbonyl)-5-methoxy-2-methylindol-3-yl)acetate], 159 to 160 °C. On the same count and under the same terms, with `COc1ccc2cc([C@H](C)C(=O)OCCN(CCO[N+](=O)[O-])S(=O)(=O)c3ccc(C)cc3)ccc2c1` [Example 48, 2-(((4-Methylphenyl)sulfonyl)(2-(nitrooxy)ethyl)amino)ethyl (2S)-2-(6-methoxy(2-naphthyl))propanoate] the figure was 92 to 95 °C; with `COc1ccc2cc([C@H](C)C(=O)SCCCCO[N+](=O)[O-])ccc2c1` [Example 54, (2S)-2-(6-methoxy(2-naphthyl))-1-(4-(nitrooxy)butylthio)propan-1-one], 30 to 35 °C. As for `COc1ccc2c(c1)c(CC(=O)OCC(=O)NCCO[N+](=O)[O-])c(C)n2C(=O)c1ccc(Cl)cc1` [Example 56, (N-(2-(Nitrooxy)ethyl)carbamoyl)methyl 2-(1-((4-chlorophenyl)carbonyl)-5-methoxy-2-methylindol-3-yl)acetate], the melting point was in the range of 128 to 129 °C. The molecule `O=C(COC(=O)Cc1ccccc1Nc1c(Cl)cccc1Cl)NCCO[N+](=O)[O-]` [Example 57, (N-(2-(Nitrooxy)ethyl)carbamoyl)methyl 2-(2-((2,6-dichlorophenyl)amino)phenyl)acetate] returned a melting point of 81 to 83 °C. For the molecule `COc1ccc2cc([C@H](C)C(=O)O)ccc2c1` [Naproxen, (2S)-2-(6-methoxy(2-naphthyl))propanoic acid, reference compound], the “Relative Activity Gastric Lesion” value in series [1] is 1.
